Biological target: Complement factor D (Homo sapiens, UniProt P00746)
Assay: Factor D Assay
Method: Human Factor D (purified from human serum, Complement Technology, Inc.) at 80 nM final concentration is incubated with test compound at various concentrations for 5 min at room temperature in 50 mM Tris, 1M NaCl, pH 7.5. A synthetic substrate Z-L-Lys-SBz and DTNB (Ellman's reagent) are added to final concentrations of 100 μM each. Absorbance at 405 nm (A405) is recorded at 30 second intervals for 30 min using a microplate spectrophotometer. IC50 values are calculated by nonlinear regression of complement Factor D reaction rates as a function of test compound concentration.

Complement factor D, sequence (P00746 whole entry): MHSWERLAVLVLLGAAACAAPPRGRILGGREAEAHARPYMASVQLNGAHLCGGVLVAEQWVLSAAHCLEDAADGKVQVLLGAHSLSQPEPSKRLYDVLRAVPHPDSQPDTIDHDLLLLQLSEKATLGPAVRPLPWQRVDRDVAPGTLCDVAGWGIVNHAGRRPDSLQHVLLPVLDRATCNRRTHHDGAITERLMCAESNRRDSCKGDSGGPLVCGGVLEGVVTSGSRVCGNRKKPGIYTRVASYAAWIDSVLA

CC(=O)c1nn(CC(=O)N2C[C@H]3C[C@H]3[C@H]2C(=O)N2C[C@H]3C[C@H]3C2C(=O)Nc2nc(Br)ccc2C)c2c(C)cc(-c3cnc(C)nc3)cc12 (stereo partly specified) [US11084800, Cpd No. 92]
IC50: in the range around 5.5 µM
